Results taken from patent US8845879B2 (priority 2010, dated 2014).
Like-named read-outs stand apart in the source and are kept apart here.

Columns and labels:
[1] = system: mitochondria isolated from Saccharomyces cerevisiae; assay type: biochemical
[2] = system: immobilized mouse liver mitochondria; assay type: biochemical
[3] = before vs after overnight soak at 4° C. in pesticide solution, average ± standard deviation

O=C(O)COc1ccc(Cl)cc1Cl [2,4-D, 2,4-Dichlorophenoxyacetic acid]
change in peak area (ΔAh) [1]: −8.237E−05 ± 1.713E−05 C
change in peak height (Δip) [1]: −1.617E−06 ± 5.286E−07 A

CCNc1nc(Cl)nc(NC(C)C)n1 [Atrazine]
change in peak area (ΔAh) [1]: −6.809E−05 ± 1.708E−05 C
change in peak height (Δip) [1]: −8.290E−07 ± 2.197E−07 A

COc1ccc2nc([S@@+]([O-])Cc3ncc(C)c(OC)c3C)[nH]c2c1 [Esomeprazole]
attenuated current [2]: 16.8±6.4%
attenuation (decrease) in current [2]: 1.7±10.3%
attenuation in metabolic energy conversion [2]: 19.9±7.6%
attenuation in metabolic energy production [2]: 58.8±11.1%

C[n+]1ccc(-c2cc[n+](C)cc2)cc1 [Paraquat]
change in peak area (ΔAh) [1]: −3.690E−05 ± 1.109E−05 C
change in peak height (Δip) [1]: −8.582E−07 ± 1.870E−07 A

CCOP(=S)(OCC)Oc1ccc([N+](=O)[O-])cc1 [Parathion]
change in peak area (ΔAh) [1, 3]: −2.721E−05 ± 9.349E−06 C
change in peak height (Δip) [1, 3]: −4.491E−07 ± 2.512E−07 A

CC1(C)C(C=C(Cl)Cl)C1C(=O)OCc1cccc(Oc2ccccc2)c1 (stereo not drawn) [Permethrin]
change in peak area (ΔAh) [1]: −6.597E−05 ± 1.238E−05 C
change in peak height (Δip) [1]: −1.015E−06 ± 2.065E−07 A

O=C(O)c1ccccc1O [Salicylic acid]
change in current after treatment (in words) [2]: not statistically significant
higher metabolic energy flux than untreated mitochondria [2]: 18.6±1.5%

CC1=NS(=O)(=O)c2cc(Cl)ccc2N1 [diazoxide]
inhibition of mitochondrial function (in words) [2]: partial inhibition

CC[C@H]1/C=C/C=C/C[C@@H](C)[C@H](O)[C@@](C)(O)C(=O)[C@@H](C)[C@H](O)[C@@H](C)C(=O)[C@@H](C)[C@H](O)[C@@H](C)/C=C/C(=O)O[C@@H]2[C@H](C)[C@H](CC1)O[C@]1(CC[C@H](C)[C@H](C[C@@H](C)O)O1)[C@H]2C [oligomycin]
attenuation (decrease) in current [2]: 36.5±3.7%
attenuation in metabolic energy conversion [2]: 60.9±1.0%

C=C(C)[C@H]1Cc2c(ccc3c2O[C@@H]2COc4cc(OC)c(OC)cc4[C@@H]2C3=O)O1 [rotenone]
inhibition of mitochondrial function (in words) [2]: strong inhibitory response

antimycin
inhibition of mitochondrial function (in words) [2]: strong inhibitory response
